In patent publication US6239284A, “Aromatic tetracyclic compounds of the retinoid type method for preparing and use” (priority 1997, dated 2001):
Entries after “also recorded” stand apart in the source; their conditions may differ.

What was measured:
RARE [1] = test: HRLN transactivation (stably transfected HeLa, RARE3-tk-Luc, endogenic receptors); assay type: cell-based
From the text: (§1) The cellular lineages HRLN and HRL+N allow one to study the activation of an RARE by endogenic receptors using ligands at physiological concentrations. These lineages derive from HeLa cells transfected in a stable fashion by a reporter gene which places the expression of the gene of the luciferase under the control of a nuclear response element RARE (RARE3 -tk-Luc). The HeLa cells express all the known receptors of the retinoic acid (RARα,β,γ and RXRα,β,γ) with a predominance of RARα and RXRα. The response element RARE used for the HRLN cells corresponds to the sequence of the natural gene of the RARβ receptor (GGTTCAnnnnnAGTTCA). The HRL+N cells comprise the sequence GAGTGAnnnnnCGGTGA.

RARα = test: Transactivation of chimerical receptor RARα-ERcassette, transient transfection of HeLa cells; assay type: cell-based; conditions: for RAR-ERcassette RARα transactivation (%): 100% = TTNPB 10^-8 M
From the text: (§2) The HeLa cells are co-transfected by a plasmid which codes for a retinoic receptor in which the C domain of bonding to the DNA is substituted by that of the receptor to RE estrogens, and a plasmid which places the expression of the luciferase under the control of an ERE (Element of Response to Estrogens). The expressed chimerical receptors are designated as RARα-ERcassette, RARβ-ERcassette, RARγ-ERcassette and RXRα-ERcassette. The A, B, D, E and F regions of the natural receptor are preserved as well as the transcriptional co-operation between the activation domains AF-1 and AF-2. These transitory transfection experiments follow the method of co-precipitation to calcium phosphate. The HeLa cells are co-transfected by […] of plasmid coding for the chimerical receptor, […] of reporter plasmid and […] of expression vector CMV-β-galactosidase used as an internal control of transfection. 24 hours after the transfection, the cells are incubated for 16 hours with the different effectors.
(§3) In this type of chimerical receptor, the C domain of bonding to the DNA of RAR is substituted by that of the receptor to the RE estrogens. The protein obtained is close to the natural RAR receptor and preserves the transcriptional properties of the AF-1 and AF-2 domains. It modulates the transcription by means of an ERE. This RAR-ERcassette model allows one to observe a transcriptional response to a more physiological ligand.
(§4) The study of the selectivity of the compounds was carried out with the RAR-ERcassette chimerical receptors model.
(§5) On one and the same line in the Table, the cis (Z) compound represents the isomeric structure of the trans (E) compound.

ERE = test: Anti-estrogenic effect, MELN cellular lineage (MCF-7 with ERE-βGlob-Luc) activated by estradiol; assay type: cell-based, human; conditions: for inhibition at 1 µM: -6 log M (10^-6 M), 10^-9 M estradiol
Experimental: MCF-7 cells express RARα,γ and RXRα. The transfection of MCF-7 cells by an estrogen-dependent gene (ERE-βGlob-Luc) has permitted the establishment of the MELN cellular lineage, used to determine the anti-oestrogenic activity of the retinoids. These cells contain the gene of the luciferase under the transcriptional control of the promoter of the βGlobine and of the response element ERE isolated from the gene of chicken vitelogenine A2. The experiments are carried out with MELN cells activated by 10^-9 M estradiol. The level of base activity of the MELN cells is obtained with the anti-estrogen 1 μM 4-OH-tamoxifen (hydroxytamoxifen).
The effect of the products tested on the cells activated by 10^-9 M estradiol is expressed as a percentage, the level of base activity being deducted.

RAR = test: RAR-ERcassette model, specificity profile (transient transfection of HeLa cells); assay type: cell-based
From the text: as §2, §3, §4

AP-1 = test: Anti-AP-1 effect, MTLN cellular lineage (MCF-7 with (TRE)3-tk-Luc) activated by TPA; assay type: cell-based, human
Experimental: The anti-factor AP-1 transrepressor effect of retinoids is determined using the MTLN lineage, coming from MCF-7 cells transfected in a stable fashion by a vector p(TRE)3 -tk-Luc which places the expression of the gene of luciferase under the control of […]. TPA activates the AP-1 complex formed from proteins of the family of nuclear proto-oncogenes (c-Jun and c-Fos). […] The experiments ware made with the MTLN cells activated by 10^-7 M TPA.
The effect of the compounds on the MTLN cells activated by 10^-7 M TPA is expressed as a percentage. […] The inhibitive properties of the products are calculated after deduction of the base activity of the cells. The percentages reported correspond to a range of inhibitions determined from several experiments.

T-47D cells = test: Anti-proliferation effect, estrogen-induced growth of T-47D cells; assay type: cell-based, human; conditions: Homo sapiens, T47D, 168 h, read-out: T-47D IC50 (growth inhibition by 50%)
Experimental: So as to test the anti-proliferation effect of the retinoids, growth experiments under oestrogenic conditions were carried out on cells MCF-7 and T-47D. These are the human estrogen-dependent mammary cancer cells which express the receptor to RE estrogens. The effect of the molecules is evaluated after 7 days of culture in oestrogenic conditions (estradiol 10^-9 M) by dosing the cellular DNA. The cells are distributed in 24 well plates at a density of 2×10^4 cells per well. The tests with the different retinoids are carried out in triplicate and the culture medium is changed after 4 days of growth.
The effect of the retinoids on the growth of MCF-7 and T-47D cells is evaluated after 7 days of culture in the presence of 10^-9 M estradiol by dosing the cellular DNA.

RARγ = test: Transactivation of chimerical receptor RARγ-ERcassette, transient transfection of HeLa cells; assay type: cell-based; conditions: -6 log M (1 μM); 100% = TTNPB 10^-8 M
From the text: as §2, §3, §4, §5

RARβ = test: Transactivation of chimerical receptor RARβ-ERcassette, transient transfection of HeLa cells; assay type: cell-based; conditions: -6 log M (1 μM); 100% = TTNPB 10^-8 M
From the text: as §2, §3, §4, §5

RARE [2] = test: HRL+N transactivation (stably transfected HeLa, RARE reporter, endogenic receptors); assay type: cell-based; conditions: Homo sapiens, HeLa; Table 12; 1 μM
From the text: as §1
The HRL+N lineage allows one to visualize a co-activation of the RAR and RXR receptors at the level of the RAR-RXR hetero-dimer.

[3] = Homo sapiens, read-out: Anti-oestrogenic effect, Inhibition (%)

SMILES	HRLN transactivation in words (RARE [1])	RAR-ERcassette RARα transactivation (%) (RARα; -6 log M (1 μM))	RAR-ERcassette profile in words (RAR)	activation at 1 µM (RARE [1]; Homo sapiens, HeLa) [%]	RAR-ERcassette RARγ transactivation (%) (RARγ)	inhibition at 1 µM (ERE; [3]) [%]	RAR-ERcassette RARβ transactivation (%) (RARβ)	further results
CC1=C(/C=C/C(C)=C\C=C\C(C)=C\C(=O)O)C(C)(C)CCC1 [9-cis RA, reference compound]	dose-dependent activation	348	induce an over-expression of luciferase in comparison to the induction brought about by a synthetic compound (TTNPB)	–	–	–	–	Emax (RARE [1]; Homo sapiens, HeLa, read-out: HRLN transactivation E max %): 196%; RAR-ERcassette RARα transactivation (%) (RARα; -7 log M): 187%; RAR-ERcassette RARα transactivation (%) (RARα; -8 log M): 60%; RAR-ERcassette RARα transactivation (%) (RARα; -9 log M): 7%; inhibition at 0.1 µM (ERE; [3]): 35%; Anti-AP-1 effect, Inhibition (%) (AP-1; -8 log M, 10^-7 M TPA, range of several experiments): 30-37%; IC50 (T-47D cells): 25.1 ± 1.4 nM
Cc1cc2c(cc1/C=C1\CCc3cc(-c4nnn[nH]4)ccc31)C(C)(C)CCC2(C)C [CB23804, (E) 5-[1-[2-(5,6,7,8-tetrahydro-3,5,5,8,8-pentamethyl)naphthalenylmethylene]-2,3-dihydro-1H-indenyl]-1H-tetrazole]	slightly active	4	weakly active	15	19	0	28	–
CC1(C)CCC(C)(C)c2cc(/C=C3/CCc4cc(C(=O)O)ccc43)ccc21 [CB27871]	partial transactivation	29	–	27	67	–	36	–
Cc1cc2c(cc1/C=C1\CCc3cc(C(=O)O)ccc31)C(C)(C)CCC2(C)C [CB40341, (E) 1-[2-(5,6,7,8-tetrahydro-3,5,5,8,8-pentamethyl)naphthalenylmethylene]-2,3-dihydro-1H-indene-5-carboxylic acid]	partial transactivation	14	RARβ,γ specificity; also recorded: RARβ,γ selectivity	30	79	–	75	RARα transactivation (RAR-ERcassette) in words (RARα): inactive on RARα
CC1Cc2cc(C(=O)O)ccc2/C1=C/c1ccc2c(c1)C(C)(C)CCC2(C)C (stereo not shown) [CB52809, (E) 1-[2-(5,6,7,8-tetrahydro-5,5,8,8-tetramethyl)naphthalenylmethylene]-2,3-dihydro-2-methyl-1H-indene-5-carboxylic acid]	–	5	–	0	13	0	0	–
CC1(C)CCC(C)(C)c2cc(/C=C3\CCCc4cc(C(=O)O)ccc43)ccc21 [CB66049, (E) 1-[2-(5,6,7,8-tetrahydro-5,5,8,8-tetramethyl)naphthalenylmethylene]-1,2,3,4-tetrahydronaphthalene-6-carboxylic acid]	inactive	0	The same result is observed	0	8	–	0	–
CC1(C)CCC(C)(C)c2cc(/C=C3\CCc4cc(C(=O)O)ccc43)ccc21 [CB78937, (E) 1-[2-(5,6,7,8-tetrahydro-5,5,8,8-tetramethyl)naphthalenylmethylene]-2,3-dihydro-1H-indene-5-carboxylic acid]	partial transactivation	18	RARβ,γ specificity; also recorded: RARβ,γ selectivity	25	93	4	65	RARα transactivation (RAR-ERcassette) in words (RARα): inactive on RARα
CC1(C)CCC(C)(C)c2cc(/C=C3/CCCc4cc(C(=O)O)ccc43)ccc21 [CB80830, (Z) 1-[2-(5,6,7,8-tetrahydro-5,5,8,8-tetramethyl)naphthalenylmethylene]-1,2,3,4-tetrahydronaphthalene-6-carboxylic acid]	inactive	2	The same result is observed	4	1	2	0	–
CC1(C)CCC(C)(C)c2cc(/C=C3/CCc4cc(-c5nnn[nH]5)ccc43)ccc21 [CB94083, (Z) 5-[1-[2-(5,6,7,8-tetrahydro-5,5,8,8-tetramethyl)naphthalenylmethylene]-2,3-dihydro-1H-indenyl]-1H-tetrazole]	–	4	weakly active	–	18	–	14	activation at 1 µM (RARE [2]): 13%
CC1(C)CCC(C)(C)c2cc(/C=C3\CCc4cc(-c5nnn[nH]5)ccc43)ccc21 [CB99811, (E) 5-[1-[2-(5,6,7,8-tetrahydro-5,5,8,8-tetramethyl)naphthalenylmethylene]-2,3,-dihydro-1H-indenyl]-1H-tetrazole]	–	3	weakly active	–	14	–	11	–
CCCCCCCOc1cc2c(cc1/C(C)=C/c1ccc(C(=O)O)cc1)C(C)(C)CCS2(=O)=O [Ro 41-5253]	totally abolishes the response of Am580 and partially abolishes that of TTNPB	–	–	–	–	–	–	Anti-estrogenic effect (MELN) in words (ERE): raises the inhibitor effect of Am580 and also of TTNPB; Anti-AP-1 effect (MTLN) in words (AP-1): does not allow the inhibition induced by TTNPB to be totally lifted
